In ChEMBL document CHEMBL5154942, “Discovery of Clinical Candidate NTQ1062 as a Potent and Bioavailable Akt Inhibitor for the Treatment of Human Tumors” (J Med Chem, 2022):

Columns and labels:
[1] = Toxicity in NCG mouse xenografted with human LNCaP cells assessed as tolerability at 12.5 to 50 mg/kg administered for 18 days; type: organism-based; conditions: in vivo, 432 h, dose 12.5-50 mg/kg, time 18 day
[2] = molecular target: T1, Cytochrome P450 1A2 (Homo sapiens, UniProt P05177); assay: Inhibition of CYP1A2 in human liver microsomes at 0.01 to 30 uM […] in presence of NADPH by UPLC-MS/MS analysis; type: ADME, Microsome
T1 sequence (P05177 whole entry): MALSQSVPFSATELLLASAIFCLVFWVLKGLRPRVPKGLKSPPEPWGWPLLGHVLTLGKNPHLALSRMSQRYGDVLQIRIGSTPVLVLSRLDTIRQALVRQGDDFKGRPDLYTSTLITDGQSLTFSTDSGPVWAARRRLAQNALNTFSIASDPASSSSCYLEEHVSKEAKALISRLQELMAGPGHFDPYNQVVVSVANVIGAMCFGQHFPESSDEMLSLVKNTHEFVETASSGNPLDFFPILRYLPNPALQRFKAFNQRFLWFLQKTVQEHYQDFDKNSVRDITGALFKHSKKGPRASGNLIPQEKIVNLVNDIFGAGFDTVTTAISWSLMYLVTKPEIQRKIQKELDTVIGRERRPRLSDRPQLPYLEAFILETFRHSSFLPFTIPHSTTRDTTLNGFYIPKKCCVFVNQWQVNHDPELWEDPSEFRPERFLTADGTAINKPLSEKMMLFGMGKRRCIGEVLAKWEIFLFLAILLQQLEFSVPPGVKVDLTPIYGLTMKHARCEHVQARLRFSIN

[3] = test system: LNCaP; assay: Induction of apoptosis in human LNCaP cells assessed as viable cells at […] incubated for 72 hrs by annexin V/PI double staining based flow cytometry method (reference value: 93.63 %); type: functional; conditions: read-out: Activity
[4] = test system: LNCaP; assay: Induction of apoptosis in human LNCaP cells assessed as early apoptotic cells at […] incubated for 72 hrs by annexin V/PI double staining based flow cytometry method (reference value: […]); type: functional
[5] = Tmax in Sprague-Dawley rat at 10 mg/kg, ig by UPLC-MS/MS analysis; type: ADME, organism-based; conditions: in vivo, po, time < 24 hrs
[6] = Cmax in Sprague-Dawley rat at 10 mg/kg, ig by UPLC-MS/MS analysis; type: ADME, organism-based; set-up: dose 10 mg/kg, route ig; conditions: in vivo, po
[7] = AUC (0 to t) in Sprague-Dawley rat at 5 mg/kg, iv measured upto 24 hrs by UPLC-MS/MS analysis; type: ADME, organism-based; set-up: time < 24 hrs, dose 5 mg/kg, route iv; conditions: in vivo
[8] = AUC (0 to infinity) in Sprague-Dawley rat at 10 mg/kg, ig by UPLC-MS/MS analysis; type: ADME, organism-based; set-up: time infinity, dose 10 mg/kg, route ig; conditions: in vivo, po
[9] = Cmax in NCG mouse xenografted with human LNCaP cells at 25 mg/kg administered once daily for 18 to 21 days and measured upto 10 hrs post last dose by LC-MS/MS analysis; type: ADME, organism-based; set-up: time upper 21 day, time lower 18 day, dose 25 mg/kg; conditions: in vivo

CC(C)NC[C@@H](C(=O)N1CCN(c2ncnc3c2[C@H](C)CC(=O)N3)[C@H]2C[C@H]21)c1ccc(Cl)cc1
Activity [1]: Non-Toxic
IC50 [2]: > 50 µM
viability at […] ([3]; dose 0.62 µM): 79.7%
viability at […] ([3]; dose 2.5 µM): 55%
Activity ([4]; dose 0.62 µM): 6.55%
Activity ([4]; dose 2.5 µM): 22.54%
Tmax [5]: 2 h
Cmax [6]: 705 ng/mL
AUC(0-t) at 24 h [7]: 1760 ng·h/mL
AUC(0-inf) [8]: 3890 ng·h/mL
Cmax [9]: 1980 ng/mL
